Assay results: patent US9908868B2, “Isoindolinone compounds as GPR119 modulators for the treatment of diabetes, obesity, dyslipidemia and related disorders” (SANOFI, priority 2014, dated 2018)

Target: T1, human GPR119 (Homo sapiens, UniProt Q8TDV5)
T1 construct: expressed in transfected cells
T1 sequence (Q8TDV5 1-335): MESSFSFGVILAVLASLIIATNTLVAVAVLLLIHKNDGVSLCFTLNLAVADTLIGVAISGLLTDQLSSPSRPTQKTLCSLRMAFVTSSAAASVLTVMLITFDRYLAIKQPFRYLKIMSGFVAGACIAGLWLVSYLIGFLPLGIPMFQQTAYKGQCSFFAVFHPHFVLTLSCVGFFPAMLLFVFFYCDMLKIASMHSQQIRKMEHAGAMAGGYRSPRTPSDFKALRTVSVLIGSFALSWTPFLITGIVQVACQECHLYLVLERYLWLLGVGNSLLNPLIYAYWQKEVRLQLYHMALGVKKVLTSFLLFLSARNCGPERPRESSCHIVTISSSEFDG
Experiment: Functional cellular assay measuring GPR119-mediated cAMP release (HTRF) in HEK-293 cells stably expressing recombinant human GPR119
Assay type: cell-based
Conditions: cAMP response, cell line expressing human GPR119, 30 minutes at room temperature
Outline: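 HEK-293 cells stably expressing recombinant human GPR119, suspended at 400000 cells/mL in HBSS/20 mM HEPES/0.1% BSA/2 mM IBMX, exposed to compound for 30 minutes at room temperature. cAMP detected by HTRF (665/620 nm ratio) after 1 h with reagents in lysis buffer. EC50 taken as concentration giving 50% of maximal activation.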

EC50 [nM] | SMILES
2530 | CC1(CN2Cc3c(F)cc(N4CC[C@@H](Oc5ccc(OCCC6CC6)nc5)C4=O)cc3C2=O)COC1 [Example 5-03, 6-[(3R)-3-[[6-(2-cyclopropylethoxy)-3-pyridyl]oxy]-2-oxo-pyrrolidin-1-yl]-4-fluoro-2-[(3-methyloxetan-3-yl)methyl]isoindolin-1-one]
1240 | CN1Cc2c(F)cc(N3CC[C@@H](Oc4ccc(OCCC5CC5)nc4)C3=O)cc2C1=O [Example 5-04, 6-[(3R)-3-[[6-(2-cyclopropylethoxy)-3-pyridyl]oxy]-2-oxo-pyrrolidin-1-yl]-4-fluoro-2-methyl-isoindolin-1-one]
5040 | CC(C)N1Cc2c(F)cc(N3CC[C@@H](Oc4ccc(OCCC5CC5)nc4)C3=O)cc2C1=O [Example 5-05, 6-[(3R)-3-[[6-(2-cyclopropylethoxy)-3-pyridyl]oxy]-2-oxo-pyrrolidin-1-yl]-4-fluoro-2-isopropyl-isoindolin-1-one]
609 | O=C1c2cc(N3CC[C@@H](Oc4ccc(OCCC5CC5)nc4)C3=O)cc(F)c2CN1CCCO [Example 5-06, 6-[(3R)-3-[[6-(2-cyclopropylethoxy)-3-pyridyl]oxy]-2-oxo-pyrrolidin-1-yl]-4-fluoro-2-(3-hydroxypropyl)isoindolin-1-one]
77 | CN(C)C(=O)CN1Cc2c(F)cc(N3CC[C@@H](Oc4ccc(OCC(F)(F)F)nc4)C3=O)cc2C1=O [Example 6-01, 2-[4-fluoro-1-oxo-6-[(3R)-2-oxo-3-[[6-(2,2,2-trifluoroethoxy)-3-pyridyl]oxy]pyrrolidin-1-yl]isoindolin-2-yl]-N,N-dimethyl-acetamide]
126 | CN(C)C(=O)CN1Cc2c(F)cc(N3CC[C@@H](Oc4ccc(OCC(C)(C)C)nc4)C3=O)cc2C1=O [Example 6-02, 2-[6-[(3R)-3-[[6-(2,2-dimethylpropoxy)-3-pyridyl]oxy]-2-oxo-pyrrolidin-1-yl]-4-fluoro-1-oxo-isoindolin-2-yl]-N,N-dimethyl-acetamide]
64 | C=CCOc1ccc(O[C@@H]2CCN(c3cc(F)c4c(c3)C(=O)N(CC(=O)N(C)C)C4)C2=O)cn1 [Example 6-03, 2-[6-[(3R)-3-[(6-allyloxy-3-pyridyl)oxy]-2-oxo-pyrrolidin-1-yl]-4-fluoro-1-oxo-isoindolin-2-yl]-N,N-dimethyl-acetamide]
35 | CN(C)C(=O)CN1Cc2c(F)cc(N3CC[C@@H](Oc4ccc(OCC5CCC5)nc4)C3=O)cc2C1=O [Example 6-04, 2-[6-[(3R)-3-[[6-(cyclobutylmethoxy)-3-pyridyl]oxy]-2-oxo-pyrrolidin-1-yl]-4-fluoro-1-oxo-isoindolin-2-yl]-N,N-dimethyl-acetamide]
